# According to patent US20100226900A1, “PREVENTION AND TREATMENT OF OSTEOCHONDROSIS IN ANIMALS AND HUMANS” (U.S. Borax Inc., priority 2005, published 2010):
# Assays:
# pigs = settings: about 100 pigs, 50 ppm boron as boric acid
# Description: An Iowa farm treated a group of about 100 pigs with 50 ppm boron as boric acid.
# sows and piglets = assay type: in vivo
# Experimental: Boron was added to the diet of sows at 1 mg/kg body weight as boric acid. […] Among a group of 95 piglets the birth to weaning mortality was 2 piglets. The usual mortality for this farm was about 5 to 7%. These piglets remained on boron 50 ppm plus ascorbate 125 ppm. One pig was euthanized and examined at a weight of about 85 pounds. […] All bones of the appendicular skeleton were sectioned on the band saw.
# [1] = tested on: sulfated glycosaminoglycan (sGAG) of cartilage; assay: Glycosaminoglycan study: sGAG in articular cartilage plugs of fed pigs (Example 2); assay type: in vivo, pig; settings: pigs fed 50 ppm boron; hock and elbow joints; unsupplemented 5045 ng/g; p<0.01
# Experimental: Hock joints and elbow joints were obtained at necropsy from pigs in two feeding groups: one group having been fed a commercial ration supplemented with 50 mg B/kg feed and the other being fed only the standard commercial pig ration.
# Cartilage plugs were harvested from the articular surfaces of 40 hock and elbow joints using a #5 (10.5 mm) cork borer. The samples were papain digested and analyzed for concentration of sulfated glycosaminoglycan (sGAG) using a spectrophotometric microplate analysis procedure adapted from Farndale, et al (1986), using a chondrotin sulfate standard. This method measures total sulfated glycosaminoglycan, most of which is chondrotin sulfate and keratan sulfate components of aggrecan. Aggrecan is the large aggregating proteoglycan of cartilage responsible for creating and maintaining the osmotic pressure of cartilage. Quanititation of sGAG concentration thus provides a measure of the weight-bearing and anti-friction properties of cartilage and is a measure of cartilage quality and durability.
# [2] = tested on: pigs (boron crosslinks, osteochondrosis)
# Experimental: The pigs were evaluated for lameness daily and euthanatized on day 13 and the joints and other organs were examined.
# [3] = tested on: growing swine (osteochondrosis); assay: Boron supplementation and OC-associated lameness in growing swine (Example 1); assay type: in vivo, pig
# Experimental: The basal diet consisted of commercial corn-soy diet containing 10 ppm boron.
# Test diet group B was fed a basal diet plus 25 mg/kg boron as sodium borate decahydrate (borax). Test diet group A was fed a basal diet plus 25 mg/kg boron as sodium borate decahydrate (borax) and 250 mg/kg ascorbic acid.
# Pigs were weighed at the beginning of the study, 4 weeks later and every 3 weeks until the end of the study. Animals were scored for soundness on a 5-point scale at each weighing. (Five-point scale: 1=no soundness defects; 2=minor soundness issues but still sound enough for retention as breeding animal; 3=not sound enough for retention for breeding but still marketable; 4=unsound, likely to be rejected at slaughter; 5=severely lame, requiring euthanasia for humane reasons.) Grading was done by the caretaker and the investigator at all weighing times. An experienced independent treatment-blind rater also evaluated the soundness of each animal and the ratings he provided were compared with the ratings of the caretaker and investigator by use of Cohen's Kappa test.
# The animals were housed in a modern curtain sided barn with deep straw bedding, with ad libitum access to feed and water. Waterers and feeders were on a concrete pad but the remainder of the flooring was deep straw over a ground limestone and sand base. Floor space allowances exceeded the recommendations of the Guide for the Care and Use of Agricultural Animals in Agricultural Research and Teaching, First Revised Edition, 1999. Federation of Animal Science Societies. Savoy, Ill.
# The basal diet (no boron supplemented) was analysed and found to contain boron at the rate of 10 ppm which is typical for a corn-soybean meal based diet.
# At the end of the study the pigs were transported to a laboratory where they were euthanized and necropsied. Six pigs in each of group B and group A were put on the control diet for 7 days at the end of the study.
# At necropsy, samples of liver, heart, kidney, fat, skeletal muscle, proximal tibia, blood, and the rostral snout were retained and frozen at −40° C. prior to chemical analysis. All joints of the axial skeleton were evaluated for the presence of gross lesions of osteochondrosis and graded on a 5 point scale. (5-point scale: 1=no gross abnormalities; 2=minor imperfections in articular conformation or articular reddening present but no cartilage erosions; 3=cartilage intact but surface irregularities of the cartilage are present; 4=fissuring or erosion of articular cartilage is obvious; 5=full thickness cartilage lesions or cartilage flaps, osteochondritis dissecans obviously present).
# The proximal femur (femoral head) and articular surfaces and growth plates associated with the stifle, hock, shoulder, elbow and carpus were sectioned with a band saw and approx. 0.5 to 1.0 cm sections fixed in formalin. Bone sections were decalcified with formic acid/sodium citrate, embedded in paraffin and sectioned at 5 microns. Sections were deparaffinized according to standard procedures. Two sections were made from each joint and growth plate and stained with either hematoxylin/eosin (H&E) or with toluidine blue (pH 4)/fast green for evaluation of the articular cartilage, subchondral bone and growth plate.
# Mean joint lesion scores, growth rate and soundness scores by treatment and by factors boron and ascorbate were compared using an analysis of variance and t-test as appropriate. Soundness scores were dichotomised into binary categorical variables for lameness (soundness score>2) and for absence of defects (soundness<2), and the binary variables analysed by chi-square and logistic regression.
# Tissue specimens stained with H&E were examined microscopically for the presence of lesions of osteochondrosis. Toluidine Blue staining allowed assessment of retention or loss of proteoglycan from the extracellular matrix (ECM) of the cartilage. Each tissue section was scored by a treatment-blind board-certified pathologist. […]
# [4] = tested on: gestating and lactating sows and their piglets; assay: Reproductive effects in sows: observation and preliminary pilot study (Example 3)
# Experimental: Sows were fed a standard corn-soy diet. Half of the sows received an oral administration of a boron supplement to provide 1 mg boron per kg body weight.
# crossbred pigs = assay: 28-day feeding trial: phosphorus digestibility and excretion, feed conversion (Example 4); assay type: in vivo, pig
# Experimental: Pigs were randomly allocated to 24 pens of 6 pigs per pen in a thermoneutral controlled environment barn with steel grid flooring. Each pen was equipped with a single-hole feeder. Water was available free-choice from a nipple drinker. […] Feces were collected on the last 3 days of the study from each pen and a pooled aliquot was dried and submitted for chemical analysis. Yttrium oxide was added to the diet at 0.05% and served as a marker for phosphorus digestibility. Pig growth and feed consumption was measured at the end of the study with the pen as the experimental unit. Data was analyzed for effects of boron and calcium by univariate and multivariate analysis of variance and t-tests.
# sows and their litters = assay: Sow and litter trial in a commercial swine operation during a PRRSV outbreak (Example 3); assay type: in vivo, pig; settings: sows given oral 1 mg boron per pound BW per day
# Experimental: To test the effect of boron on sows and their litters, a trial was established in a large commercial swine operation during an outbreak of porcine viral reproductive and respiratory disease (PRRSV). Boron was administered orally to a group of 51 sows individually housed in crates at the rate of 1 mg boron per pound BW per day beginning 1 week prior to farrowing and continuing until the piglets were weaned at 14 days of age. […] Boron treatment was supplied as a single daily dosing and was discontinued at weaning. All sows were fed a standard commercial sow diet.
# [5] = boron 50 ppm in feed, 3-NPB none, 5 pigs
# [6] = sows fed 50 ppm supplemental boron, late gestation and early lactation
smiles,measurement,setting,value
OB(O)O [boric acid],Growth rate,pigs,excellent growth rate
same,Lameness/unsoundness rate,pigs; estimated previous rate about 25 to 30%,zero
same,Birth to weaning mortality,"sows and piglets; among a group of 95 piglets, usual mortality of the farm about 5 to 7%",2 piglets
same,Outcome in three noticeably and seriously lame sows,"sows and piglets; sows, boron 1 mg/kg body weight as boric acid in diet",became perfectly sound
[B] [boron],sGAG concentration in cartilage (dry matter basis),[1],11050 ng/g
same,Clinical Lameness Score: count of pigs Normal,[2]; [5],5
same,Clinical Lameness Score: count of pigs with Visible Lameness,[2]; [5],0
same,"Prevalence and severity of osteochondrosis lesions in shoulder, stifle, hock and elbow joints","[2]; supplemental boron, no 3-NPB",lowest prevalence of lesions and the lowest severity
same,Joint health vs basal diet (FIG. 1),[3]; 25 mg/kg boron as borax vs basal diet,healthier joints
same,"Growth plate lesions associated with widening, share of tissues","[3]; 25 ppm boron in feed (as borax), unsupplemented group 57%",19%
same,"Articular cartilage lesions (necrosis, hemorrhage, infarction, or streaks), share of tissues","[3]; 25 ppm supplemental B in feed, unsupplemented pigs 21%",4%
same,TBlue staining intensity of cartilage (semi-quantitative sGAG content),[3]; boron supplemented group vs unsupplemented,consistently higher
same,Incidence of osteochondrosis-associated lameness,"[3]; growing swine, boron supplementation",effective in reduction
same,Occurrence of osteochondrosis,"[3]; pigs, supplemental boron 25 ppm to 50 ppm (FIGS. 1, 3, 4)",significant reduction
same,Piglet weight at 12 days of age,"[4]; pilot study, sows given oral 1 mg boron per kg body weight, non-supplemented 8.0 pounds",8.5 pounds
same,Pre-weaning mortality,"[4]; pilot study, sows given oral 1 mg boron per kg body weight, non-supplemented 23%, preliminary, first 600 pigs",16%
same,"Piglet quality (uniformity, growth, general thrift)",[4]; [6],improved
same,Pre-weaning piglet mortality (observation),[4]; [6],reduced
same,Phosphorus Digestibility (%),"crossbred pigs; 50 ppm added B in feed, 28 days, no added B 33.4, p 0.017",36.3%
same,Phosphorus excretion in Feces (g/Kg gain),"crossbred pigs; 50 ppm added B in feed, 28 days, no added B 88.1, p 0.028",74.6 g/Kg gain
same,Reduction of phosphorus excretion per unit of production,crossbred pigs; boron added to the diet vs no added boron,15%
same,Effect on litter size at birth,sows and their litters,no effects
same,Effect on piglet birth weight,sows and their litters,no effects
same,Likelihood to conceive relative to control sows,sows and their litters; p=0.04,1.2 times
same,"Return to estrus, average days quicker than control sows",sows and their litters; p=0.047,1.6 days
same,Joint findings at necropsy,sows and piglets; one pig of about 85 pounds kept on boron 50 ppm plus ascorbate 125 ppm,No abnormalities were observed
